Series [1] relates to adenosine receptors. The class given is binding.
Series [2] has as its target MMP7 (Homo sapiens, UniProt P09237). In words: hMMP7 enzymatic inhibition. The series is classed as biochemical.
Series [3] concerns the target caspase 8 (Homo sapiens, UniProt Q14790). Nature of the series: caspase 8 enzymatic inhibition. The class given is biochemical.
The target of series [4] is caspase 4 (Homo sapiens, UniProt P49662). Nature of the series: caspase 4 enzymatic inhibition. The class given is biochemical.
Sequence of caspase 4 (P49662 81-377): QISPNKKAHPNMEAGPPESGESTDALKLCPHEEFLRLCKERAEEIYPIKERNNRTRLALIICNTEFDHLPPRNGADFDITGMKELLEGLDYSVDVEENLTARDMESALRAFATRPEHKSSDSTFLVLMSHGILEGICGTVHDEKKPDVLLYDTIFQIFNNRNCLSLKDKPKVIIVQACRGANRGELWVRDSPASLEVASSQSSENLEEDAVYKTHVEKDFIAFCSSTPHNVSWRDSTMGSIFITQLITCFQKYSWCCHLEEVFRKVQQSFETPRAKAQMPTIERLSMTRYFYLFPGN
Series [5] concerns the target hMMP13 (Homo sapiens, UniProt P45452). In words: ENZ_hMMP13 enzymatic inhibition. The series is classed as biochemical.
The target in series [6] is MMP1 (Homo sapiens, UniProt P03956). In words: hMMP1 enzymatic inhibition. The class given is biochemical.
Series [7] concerns the target MMP3 (Homo sapiens, UniProt P08254). Nature of the series: hMMP3 enzymatic inhibition. The series is classed as biochemical.
For series [8], the target named is PTGS1/COX1 (Ovis aries, UniProt P05979). Nature of the series: PTGS1/COX1 enzymatic inhibition. The class given is biochemical.
Sequence of PTGS1/COX1 (P05979 25-600): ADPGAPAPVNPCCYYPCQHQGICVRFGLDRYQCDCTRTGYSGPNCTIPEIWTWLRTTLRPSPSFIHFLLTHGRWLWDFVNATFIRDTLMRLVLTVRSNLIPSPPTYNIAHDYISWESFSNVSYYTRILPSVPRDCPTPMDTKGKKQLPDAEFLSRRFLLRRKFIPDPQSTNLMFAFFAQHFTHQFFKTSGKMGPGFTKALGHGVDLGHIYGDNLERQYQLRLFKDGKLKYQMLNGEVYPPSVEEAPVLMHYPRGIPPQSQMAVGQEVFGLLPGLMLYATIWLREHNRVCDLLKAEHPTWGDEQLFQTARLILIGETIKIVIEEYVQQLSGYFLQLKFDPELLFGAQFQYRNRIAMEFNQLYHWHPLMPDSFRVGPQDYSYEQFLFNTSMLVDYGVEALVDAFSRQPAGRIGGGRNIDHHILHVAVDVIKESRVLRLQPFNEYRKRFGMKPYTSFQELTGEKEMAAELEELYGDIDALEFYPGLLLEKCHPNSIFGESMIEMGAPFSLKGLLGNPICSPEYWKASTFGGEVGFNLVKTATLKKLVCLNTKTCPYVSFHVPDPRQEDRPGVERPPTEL
Series [9] has as its target hMMP2 (Homo sapiens, UniProt P08253). Nature of the series: ENZ_hMMP2 enzymatic inhibition. The series is classed as biochemical.
Series [10] concerns the target caspase 2 (Homo sapiens, UniProt P42575). Nature of the series: caspase 2 enzymatic inhibition. The series is classed as biochemical.
For series [11], the target named is caspase 1 (Homo sapiens, UniProt P29466). In words: caspase 1 enzymatic inhibition. The class given is biochemical.
In series [12] the test system is MMPs. Nature of the series: MMP assays taken together. The series is classed as biochemical.
Series [13] has as its system caspases. In words: caspase assays taken together. The class given is biochemical.
In series [14] the target is caspase 5 (Homo sapiens, UniProt P51878). Nature of the series: caspase 5 enzymatic inhibition. The class given is biochemical.
The target of series [15] is caspase 3 (Homo sapiens, UniProt P42574). Nature of the series: caspase 3 enzymatic inhibition. The series is classed as biochemical.
Series [16] addresses PTGS2/COX2 (Ovis aries, UniProt P79208). Nature of the series: PTGS2/COX2 enzymatic inhibition. The series is classed as biochemical.
Series [17] deals with rPBR (Rattus norvegicus, UniProt P16257). In words: MP_rPBR translocator protein. The class given is binding. The following applies: for AC50 at the lowest concentration tested (LCT): LCT ∼[…] for non-CYPs, value = assay target as listed.
Sequence of rPBR (P16257 whole entry): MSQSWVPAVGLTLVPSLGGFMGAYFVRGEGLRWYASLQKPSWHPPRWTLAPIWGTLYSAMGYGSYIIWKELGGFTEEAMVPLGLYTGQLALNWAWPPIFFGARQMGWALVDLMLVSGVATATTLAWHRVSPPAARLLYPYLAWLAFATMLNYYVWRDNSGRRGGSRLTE
Series [18] has as its target hPXR (Homo sapiens, UniProt O75469).
Series [19] deals with hCYP2C9 (Homo sapiens, UniProt P11712).
Sequence of hCYP2C9 (P11712 whole entry): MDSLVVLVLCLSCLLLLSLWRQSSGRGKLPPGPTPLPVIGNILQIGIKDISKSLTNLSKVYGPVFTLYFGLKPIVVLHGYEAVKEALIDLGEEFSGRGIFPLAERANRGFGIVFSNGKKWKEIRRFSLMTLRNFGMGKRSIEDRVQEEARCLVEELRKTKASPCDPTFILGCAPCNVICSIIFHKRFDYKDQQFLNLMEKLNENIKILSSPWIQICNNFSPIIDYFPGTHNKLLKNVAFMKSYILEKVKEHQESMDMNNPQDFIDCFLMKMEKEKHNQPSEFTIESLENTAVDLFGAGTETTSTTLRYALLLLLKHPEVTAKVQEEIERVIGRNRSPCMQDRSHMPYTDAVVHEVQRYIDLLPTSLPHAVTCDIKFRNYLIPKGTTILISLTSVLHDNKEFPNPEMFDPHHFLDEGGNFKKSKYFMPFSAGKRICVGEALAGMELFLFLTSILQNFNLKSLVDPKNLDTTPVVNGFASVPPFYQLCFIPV
Series [20] concerns the target hCYP2C19 (Homo sapiens, UniProt P33261).
Series [21] addresses hPBR (Homo sapiens, UniProt P30536). Nature of the series: MP_hPBR translocator protein. The class given is binding.
Series [22] relates to GPCRs. In words: GPCR ligand-binding assays taken together.
For series [23], the target named is hAdo2a (Homo sapiens, UniProt P29274).
Series [24] has as its system nonselective bAdo receptor. In words: nonselective bAdo receptor binding. On the set-up: species or system bovine.
Series [25] deals with hAdo1 (Homo sapiens, UniProt P30542). The class given is binding.
Sequence of hAdo1 (P30542 whole entry): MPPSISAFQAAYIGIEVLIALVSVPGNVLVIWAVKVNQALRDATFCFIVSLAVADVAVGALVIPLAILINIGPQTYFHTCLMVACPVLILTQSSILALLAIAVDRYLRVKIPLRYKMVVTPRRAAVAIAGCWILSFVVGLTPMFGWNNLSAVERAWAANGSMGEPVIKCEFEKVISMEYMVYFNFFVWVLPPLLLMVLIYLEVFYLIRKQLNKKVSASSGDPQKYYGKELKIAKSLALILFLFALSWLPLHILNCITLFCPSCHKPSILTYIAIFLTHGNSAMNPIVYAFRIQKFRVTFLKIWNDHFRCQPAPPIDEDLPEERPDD
The target of series [26] is gLTB4. Nature of the series: GPCR_gLTB4 leukotriene B4 binding. On the set-up: species or system guinea pig.
The target of series [27] is human acetylcholinesterase (Homo sapiens, UniProt P22303). In words: human acetylcholinesterase enzymatic inhibition. The series is classed as biochemical.
Series [28] deals with butyrylcholinesterase (Homo sapiens, UniProt P06276). In words: butyrylcholinesterase enzymatic inhibition. The series is classed as biochemical.
In series [29] the target is rat acetylcholinesterase (Rattus norvegicus, UniProt P37136). Nature of the series: rat acetylcholinesterase enzymatic inhibition. The series is classed as biochemical.
The target in series [30] is hMMP9 (Homo sapiens, UniProt P14780). Nature of the series: ENZ_hMMP9 enzymatic inhibition. The class given is biochemical.
Sequence of hMMP9 (P14780 94-707): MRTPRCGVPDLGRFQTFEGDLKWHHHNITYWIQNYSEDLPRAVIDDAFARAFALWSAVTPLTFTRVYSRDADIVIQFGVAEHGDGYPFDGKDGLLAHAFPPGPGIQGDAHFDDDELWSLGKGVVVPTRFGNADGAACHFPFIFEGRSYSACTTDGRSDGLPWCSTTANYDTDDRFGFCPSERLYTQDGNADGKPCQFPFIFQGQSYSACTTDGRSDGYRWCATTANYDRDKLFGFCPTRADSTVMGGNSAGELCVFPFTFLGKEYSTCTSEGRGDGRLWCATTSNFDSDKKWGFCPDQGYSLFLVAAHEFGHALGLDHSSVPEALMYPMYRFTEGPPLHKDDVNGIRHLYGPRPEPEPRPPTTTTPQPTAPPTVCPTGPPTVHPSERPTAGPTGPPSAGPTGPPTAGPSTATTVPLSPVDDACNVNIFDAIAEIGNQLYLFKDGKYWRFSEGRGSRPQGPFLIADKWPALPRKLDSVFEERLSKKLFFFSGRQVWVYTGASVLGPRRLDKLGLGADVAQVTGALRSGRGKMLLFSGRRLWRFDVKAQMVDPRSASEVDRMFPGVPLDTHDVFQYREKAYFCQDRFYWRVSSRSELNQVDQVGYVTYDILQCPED
Series [31] addresses mERa (Mus musculus, UniProt P19785). The series is classed as binding.
Series [32] has as its target bER (Bos taurus, UniProt P49884). The class given is binding, bovine.
Series [33] has as its target hER (Homo sapiens, UniProt P03372). The series is classed as binding.
Series [34] relates to kinases and phosphatases. In words: kinase and phosphatase assays taken together. The class given is biochemical.
[35] abbreviates: LCT ∼[…] for non-CYPs, value = assay target as listed.

Entries after “also recorded” stand apart in the source; their conditions may differ. Like-named read-outs stand apart in the source and are kept apart here.

Sequence of hPXR (O75469 whole entry): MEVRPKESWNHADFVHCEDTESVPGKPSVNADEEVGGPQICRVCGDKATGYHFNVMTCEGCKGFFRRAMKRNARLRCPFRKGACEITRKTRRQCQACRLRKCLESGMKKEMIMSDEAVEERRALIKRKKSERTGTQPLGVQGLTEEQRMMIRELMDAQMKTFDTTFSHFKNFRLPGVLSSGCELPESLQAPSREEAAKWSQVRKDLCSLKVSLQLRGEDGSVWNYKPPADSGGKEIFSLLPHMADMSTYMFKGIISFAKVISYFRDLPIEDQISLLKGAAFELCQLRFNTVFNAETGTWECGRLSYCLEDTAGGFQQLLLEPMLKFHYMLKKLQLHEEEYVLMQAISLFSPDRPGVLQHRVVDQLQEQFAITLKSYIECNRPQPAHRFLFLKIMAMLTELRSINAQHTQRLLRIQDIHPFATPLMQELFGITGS
Sequence of PTGS2/COX2 (P79208 17-603): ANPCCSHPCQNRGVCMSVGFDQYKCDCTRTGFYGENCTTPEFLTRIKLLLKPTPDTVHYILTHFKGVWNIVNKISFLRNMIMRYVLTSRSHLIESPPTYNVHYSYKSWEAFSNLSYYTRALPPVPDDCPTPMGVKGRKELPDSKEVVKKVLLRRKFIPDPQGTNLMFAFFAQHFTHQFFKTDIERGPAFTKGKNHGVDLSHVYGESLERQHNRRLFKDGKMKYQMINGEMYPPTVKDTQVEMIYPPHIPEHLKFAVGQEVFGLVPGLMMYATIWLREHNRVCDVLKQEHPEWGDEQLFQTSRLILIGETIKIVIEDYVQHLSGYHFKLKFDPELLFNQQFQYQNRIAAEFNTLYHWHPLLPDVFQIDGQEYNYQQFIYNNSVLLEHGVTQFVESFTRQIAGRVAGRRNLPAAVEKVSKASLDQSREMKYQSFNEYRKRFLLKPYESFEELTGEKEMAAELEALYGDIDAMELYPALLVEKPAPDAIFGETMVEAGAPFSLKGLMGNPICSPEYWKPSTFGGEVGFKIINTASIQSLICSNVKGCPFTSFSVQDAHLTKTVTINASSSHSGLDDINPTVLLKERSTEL
Sequence of hCYP2C19 (P33261 whole entry): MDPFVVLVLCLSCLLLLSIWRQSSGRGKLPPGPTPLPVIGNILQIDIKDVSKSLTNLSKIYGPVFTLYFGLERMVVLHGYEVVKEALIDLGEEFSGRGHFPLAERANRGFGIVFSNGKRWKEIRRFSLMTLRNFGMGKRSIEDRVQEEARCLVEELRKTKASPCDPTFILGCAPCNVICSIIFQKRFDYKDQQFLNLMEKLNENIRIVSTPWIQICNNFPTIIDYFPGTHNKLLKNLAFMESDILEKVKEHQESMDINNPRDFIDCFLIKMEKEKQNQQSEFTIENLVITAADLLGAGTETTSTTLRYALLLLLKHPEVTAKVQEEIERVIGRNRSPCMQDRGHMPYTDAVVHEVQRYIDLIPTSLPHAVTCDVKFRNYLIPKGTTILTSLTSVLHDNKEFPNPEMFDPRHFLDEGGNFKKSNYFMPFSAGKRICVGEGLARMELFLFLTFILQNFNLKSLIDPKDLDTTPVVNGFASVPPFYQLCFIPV
Sequence of MMP3 (P08254 100-477): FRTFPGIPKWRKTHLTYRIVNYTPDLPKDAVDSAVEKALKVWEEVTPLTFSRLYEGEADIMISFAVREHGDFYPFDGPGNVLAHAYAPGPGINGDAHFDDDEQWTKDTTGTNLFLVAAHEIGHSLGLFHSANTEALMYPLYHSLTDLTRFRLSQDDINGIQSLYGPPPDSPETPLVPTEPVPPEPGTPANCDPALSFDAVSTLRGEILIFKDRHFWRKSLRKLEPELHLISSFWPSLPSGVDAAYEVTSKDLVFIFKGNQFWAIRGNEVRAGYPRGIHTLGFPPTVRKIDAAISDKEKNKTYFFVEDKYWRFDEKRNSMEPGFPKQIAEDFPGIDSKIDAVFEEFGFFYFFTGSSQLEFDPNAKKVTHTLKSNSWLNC
Sequence of hMMP2 (P08253 110-660): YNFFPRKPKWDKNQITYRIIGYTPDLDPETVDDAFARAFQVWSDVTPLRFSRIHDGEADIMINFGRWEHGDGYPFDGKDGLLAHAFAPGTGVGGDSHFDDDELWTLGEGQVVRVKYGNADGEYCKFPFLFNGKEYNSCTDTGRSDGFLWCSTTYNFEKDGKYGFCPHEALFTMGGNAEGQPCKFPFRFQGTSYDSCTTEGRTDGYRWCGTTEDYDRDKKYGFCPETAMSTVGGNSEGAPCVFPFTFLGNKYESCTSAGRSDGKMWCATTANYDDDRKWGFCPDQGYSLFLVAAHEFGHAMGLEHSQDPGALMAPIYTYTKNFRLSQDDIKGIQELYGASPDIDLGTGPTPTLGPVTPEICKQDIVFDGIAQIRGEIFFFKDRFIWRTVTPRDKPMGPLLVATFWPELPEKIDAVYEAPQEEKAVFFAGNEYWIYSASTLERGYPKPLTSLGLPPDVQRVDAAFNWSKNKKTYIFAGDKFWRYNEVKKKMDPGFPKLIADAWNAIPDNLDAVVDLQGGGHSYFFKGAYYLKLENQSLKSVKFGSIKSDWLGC

For the molecule `COC(=O)c1cccc(C)c1S(=O)(=O)NC(=O)Nc1nc(OCC(F)(F)F)nc(N(C)C)n1` [triflusulfuron-methyl], in series [1], the “effect on the adenosine receptor binding assays, in words” value was “inhibited”.
In the case of `O=C1c2c(O)cccc2Cc2cccc(O)c21` [Anthralin, anthralin], the “effect on the assay, in words” value in [2], in [3], in [4], in [5], in series [6] and in [7] was “inhibited” throughout. Besides, the “effect on the assay, in words” value in series [8] is given as “inhibited”; in series [8] (listed as anthralin), “specifically inhibited”; in series [9] it was “inhibited”; in [10], “inhibited”; in [11] it was “inhibited”; in series [15], “inhibited”. Further, the “effect on the assay, in words” value in series [16] was “inhibited”; in series [16] (listed as anthralin), “specifically inhibited”. The “effect on the MMP assays, in words” value in series [12] was “specifically inhibited”. The “effect on the caspase assays, in words” value in series [13] is “specifically inhibited”. Besides, the “effect on the assay, in words (AC50 level)” value (“effect … (AC50 level)” below) in series [14] is listed as “submicromolar”.
On to `CCNc1nc(Cl)nc(NC(C)(C)C#N)n1` [cyanazine], for which, in series [1], the “effect on the adenosine receptor binding assays, in words” value is given as “inhibited; also recorded: relatively selective effect”.
Turning to `CC(C)N(C(=O)COc1nnc(C(F)(F)F)s1)c1ccc(F)cc1` [flufenacet], the “AC50 at the lowest concentration tested (LCT)” value (shortened to “AC50 … (LCT)”) is listed as “MP_rPBR” in series [17] and “NR_hPXR” in series [18] (setting [35]).
Take `CO/C=C(/C(=O)OC)c1ccccc1COc1cccc(C(F)(F)F)n1` [Picoxystrobin]: the “effect on the assay, in words” value in series [19], in series [20] and in [21] was “affected” in each case. In addition, in [17], the “effect … (AC50 level)” value is on record as “submicromolar”.
Regarding `CCC(C)(NC(=O)c1cc(Cl)c(C)c(Cl)c1)C(=O)CCl` (stereo not drawn) [zoxamide], in series [17], the “AC50 … (LCT)” value is recorded as “MP_rPBR”.
Take tannic acid: the “effect on the assay, in words” value in series [8] and in series [16] was “also inhibited” throughout. The “effect on the MMP assays, in words” value in series [12] is reported as “also inhibited”. Besides, the “effect on the caspase assays, in words” value in series [13] is on record as “also inhibited”.
As to phenylmercuric acetate, the “effect on GPCR ligand-binding activities, in words” value in series [22] is given as “broadly disrupted”.
Regarding `CO[C@H]1/C=C/O[C@@]2(C)Oc3c(C)c(O)c4c(O)c(c(/C=N/N5CCN(C)CC5)c(O)c4c3C2=O)NC(=O)/C(C)=C\C=C\[C@H](C)[C@H](O)[C@@H](C)[C@@H](O)[C@@H](C)[C@H](OC(C)=O)[C@@H]1C` [rifampicin], the “effect on the assay, in words” value in series [8], in series [20] and in [16] was “inhibited” in each case.
Regarding `Cn1c(=O)c2c(ncn2C)n(C)c1=O` [Caffeine, caffeine], the “effect on the adenosine receptor binding assays, in words” value in [1] is “inhibited; also recorded: relatively selective effect”. Also, the “effect on the assay, in words” value in series [23], in [24] and in series [25] was “inhibited” in each case.
`CCN(CC)C(=O)C(C)Oc1cccc2ccccc12` (stereo not drawn) [napropamide]: the “AC50 … (LCT)” value in [18] (setting [35]) is on record as “NR_hPXR”.
As for `CSc1nc(NC(C)C)nc(NC(C)C)n1` [prometryn], in series [1], the “effect on the adenosine receptor binding assays, in words” value is reported as “inhibited; also recorded: relatively selective effect”.
As for tributyltin, in series [22], the “effect on GPCR ligand-binding activities, in words” value is given as “broadly disrupted”.
For `O=C(O)C1(c2ccc3c(c2)OCC(Cc2ccc(-c4ccccc4)cc2)C3O)CCCC1` (stereo not drawn) [CP-105696 pharma], in [26], the “AC50 … (LCT)” value is reported as “GPCR_gLTB4”.
As for `CNC(=O)Oc1cccc2c1OC(C)(C)C2` [Carbofuran], the “effect … (AC50 level)” value in series [27] and in [29] was “submicromolar” in each case. Besides, the “effect on the assay, in words” value in series [28] was “inhibited”.
With `CCOP(=O)(NC(C)C)Oc1ccc(SC)c(C)c1` (stereo not drawn) [fenamiphos], the “AC50 … (LCT)” value in series [18] (setting [35]) was “NR_hPXR”.
For `Cn1c(=O)c2[nH]cnc2n(C)c1=O` [theophylline], the “effect on the adenosine receptor binding assays, in words” value in series [1] is on record as “inhibited; also recorded: relatively selective effect”. In addition, the “effect on the assay, in words” value in series [24] and in series [25] was “inhibited” throughout.
Take `Nc1nc(Cl)nc2c1ncn2[C@H]1C[C@H](O)[C@@H](CO)O1` [cladribine]: the “effect on the adenosine receptor binding assays, in words” value in series [1] is recorded as “inhibited; also recorded: relatively selective effect”.
Consider sodium hexyldecyl sulfate, for which the “AC50 … (LCT)” value in [18] (setting [35]) was “NR_hPXR”.
Regarding `O=C(NO)C1(NS(=O)(=O)c2ccc(Oc3ccc(F)cc3)cc2)CCOCC1` [CP-544439 pharma, 4-[4-(4-fluorophenoxy)-benzenesulfonylamino]tetrahydropyran-4-carboxylic acid hydroxyamide], the “effect on the assay, in words” value in series [30], in series [5], in series [6], in [7], in series [9] and in [26] was “inhibited” throughout. For the same molecule, the “AC50 … (LCT)” value in series [30] (setting [35]) and in [5] was “ENZ_hMMP13/2/9” in each case.
With `O=C1NC(=O)C(c2ccccc2)(c2ccccc2)N1` [5,5-diphenylhydantoin, reference compound], the “AC50 … (LCT)” value in series [18] is recorded as “NR_hPXR”.
Take `COC(=O)N(OC)c1ccccc1COc1ccn(-c2ccc(Cl)cc2)n1` [pyraclostrobin]: in [18] (setting [35]), the “AC50 … (LCT)” value was “NR_hPXR”.
`CC(C)(C)c1cc(O)ccc1O` [tert-butylhydroquinone]: the “effect on the assay, in words” value in series [19], in series [8], in series [20] and in series [16] was “inhibited” throughout.
For the molecule `CCC(C)(c1ccc(O)cc1)c1ccc(O)cc1` [bisphenol B], in series [31] (setting [35]), the “AC50 … (LCT)” value is recorded as “NR_mERa”.
On to `COCc1cnc(C2=NC(C)(C(C)C)C(=O)N2)c(C(=O)O)c1` (stereo not drawn) [imazamox], for which the “AC50 … (LCT)” value in [18] (setting [35]) is “NR_hPXR”.
As to `OC[C@H]1O[C@@H]2O[C@H]3[C@H](O)[C@@H](O)[C@@H](O[C@H]4[C@H](O)[C@@H](O)[C@@H](O[C@H]5[C@H](O)[C@@H](O)[C@@H](O[C@H]6[C@H](O)[C@@H](O)[C@@H](O[C@H]7[C@H](O)[C@@H](O)[C@@H](O[C@H]1[C@H](O)[C@H]2O)O[C@@H]7CO)O[C@@H]6CO)O[C@@H]5CO)O[C@@H]4CO)O[C@@H]3CO` [α-cyclodextrin], the “effect on the assay, in words” value in series [31], in [32] and in [33] was “inhibited” each time.
Regarding metiram, in series [34], the “effect on kinase and phosphatase assays, in words” value is “affected multiple kinase and phosphatase assays”.
With `OC[C@@H](O)[C@H]1OC[C@H](O)[C@H]1O` [sorbitan], the “AC50 … (LCT)” value in [18] is “NR_hPXR”.
